The values that follow come from ChEMBL document CHEMBL1130510, “Synthesis and in vitro cytotoxicity of aminocoumarin platinum(II) complexes” (Bioorg Med Chem Lett, 1997).

For the first experiment, the system named is Caco-2. Nature of the experiment: Compound was tested in vitro for its cytotoxic activity against Caco-2T cells in MTT assay and activity is expressed as IC50. The format is functional, cell-based, Homo sapiens.
Conditions: not given
On the technique in general: Tetrazolium dyes change colour on reduction, which living cells bring about.
A word on the IC50: it is the concentration that inhibits the measured activity by half. For the substance “7-Amino-4-Methyl-Coumarin Platinum (II) Complex [listing 1 of 2 here]”, the IC50 came out at 100 µg/mL. As to “3-Acetamido-6-Aminocoumarin Platinum (II) Complex [listing 1 of 2 here]”, the IC50 turned out to be 80 µg/mL. “7-Amino-4-Trifluoromethyl-Coumarin Platinum (II) Complex [listing 1 of 2 here]” yielded an IC50 of 10 µg/mL.

The subject of a further experiment is Caco-2. Nature of the experiment: Compound was tested in vitro for its cytotoxic activity against Caco-2T cells in MTT assay and activity is expressed as IC80. The format is functional, cell-based. The settings on record: Homo sapiens.
Usually IC80 stands for the concentration at which the effect reaches the 80% level. Higher therefore signals a need for much substance. On to “7-Amino-4-Trifluoromethyl-Coumarin Platinum (II) Complex [listing 2 of 2 here]”, for which the IC80 is 5 µg/mL.

Substance “7-Amino-4-Methyl-Coumarin Platinum (II) Complex [listing 2 of 2 here]” registered an IC80 of 30 µg/mL. In turn, 6-Aminocoumarin Platinum (II) Complex showed an IC80 of 100 µg/mL. Still for that read-out and setting: in the case of “3-Acetamido-6-Aminocoumarin Platinum (II) Complex [listing 2 of 2 here]” it was 30 µg/mL.
